# According to PMC9645382 (Drug development research, 2019):
# Biological target: T1, human neutrophil elastase (HNE) (Homo sapiens, UniProt P08246)
# T1 sequence (P08246 30-267): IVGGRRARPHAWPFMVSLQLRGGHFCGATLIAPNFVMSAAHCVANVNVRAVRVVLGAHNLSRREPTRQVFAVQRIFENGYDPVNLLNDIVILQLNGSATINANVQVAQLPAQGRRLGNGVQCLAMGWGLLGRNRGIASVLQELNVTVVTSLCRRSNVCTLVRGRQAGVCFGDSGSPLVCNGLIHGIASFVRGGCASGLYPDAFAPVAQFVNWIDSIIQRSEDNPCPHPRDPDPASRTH
# Assay: HNE inhibition assay
# Format: biochemical
row,IC50 [nM],Compound
1,46 ± 12,"Cc1cccc(C(=O)n2cc(-c3ccccc3)c(=O)o2)c1 [Compound 4a, 2-(3-Methylbenzoyl)-4-phenylisoxazol-5(2H)-one]"
2,81 ± 28,"Cc1cccc(C(=O)n2cc(-c3ccc(C(F)(F)F)cc3)c(=O)o2)c1 [Compound 4i, 2-(3-Methylbenzoyl)-4-(4-[trifluoromethyl]phenyl)isoxazol-5(2H)-one]"
3,22 ± 7,"Cc1ccc(-c2cn(C(=O)c3cccc(C)c3)oc2=O)cc1 [Compound 4b, 2-(3-Methylbenzoyl)-4-(p-tolyl)isoxazol-5(2H)-one]"
4,26 ± 4,"Cc1ccc(-c2cn(C(=O)C3CC3)oc2=O)cc1 [Compound 3b, 2-(Cyclopropanecarbonyl)-4-(p-tolyl)isoxazol-5(2H)-one]"
5,31 ± 3,"O=C(C1CC1)n1cc(-c2ccc(Br)cc2)c(=O)o1 [Compound 3e, 4-(4-Bromophenyl)-2-(cyclopropanecarbonyl)isoxazol-5(2H)-one]"
6,78 ± 2,"Cc1cccc(C(=O)n2cc(-c3ccc(C#N)cc3)c(=O)o2)c1 [Compound 4h, 4-(2-(3-Methylbenzoyl)-5-oxo-2,5-dihydroisoxazol-4-yl)benzonitrile]"
7,31 ± 3,"Cc1cccc(C(=O)n2cc(-c3cccc(C)c3)c(=O)o2)c1 [Compound 4c, 2-(3-Methylbenzoyl)-4-(m-tolyl)isoxazol-5(2H)-one]"
8,11 ± 3,"COc1ccc(-c2cn(C(=O)C3CC3)oc2=O)cc1 [Compound 3g, 2-(Cyclopropanecarbonyl)-4-(4-methoxyphenyl)isoxazol-5(2H)-one]"
9,33 ± 1,"O=C(C1CC1)n1cc(-c2ccc(C(F)(F)F)cc2)c(=O)o1 [Compound 3i, 2-(Cyclopropanecarbonyl)-4-(4-(trifluoromethyl)phenyl)isoxazol-5(2H)-one]"
10,16 ± 5,"O=C(C1CC1)n1cc(-c2ccccc2)c(=O)o1 [Compound 3a, 2-(Cyclopropanecarbonyl)-4-phenylisoxazol-5(2H)-one]"
11,28 ± 3,"Cc1cccc(C(=O)n2cc(-c3ccccc3C)c(=O)o2)c1 [Compound 4d, 2-(3-Methylbenzoyl)-4-(o-tolyl)isoxazol-5(2H)-one]"
12,23 ± 7,"COc1ccc(-c2cn(C(=O)c3cccc(C)c3)oc2=O)cc1 [Compound 4g, 4-(4-Methoxyphenyl)-2-(3-methylbenzoyl)isoxazol-5(2H)-one]"
13,39 ± 11,"Cc1ccccc1-c1cn(C(=O)C2CC2)oc1=O [Compound 3d, 2-(Cyclopropanecarbonyl)-4-(o-tolyl)isoxazol-5(2H)-one]"
14,25 ± 2,"Cc1cccc(C(=O)n2cc(-c3ccc(Cl)cc3)c(=O)o2)c1 [Compound 4f, 4-(4-Chlorophenyl)-2-(3-methylbenzoyl)isoxazol-5(2H)-one]"
15,42 ± 8,"O=C(C1CC1)n1cc(-c2ccc(Cl)cc2)c(=O)o1 [Compound 3f, 4-(4-Chlorophenyl)-2-(cyclopropanecarbonyl)isoxazol-5(2H)-one]"
16,47 ± 7,"Cc1cccc(C(=O)n2cc(-c3ccc(Br)cc3)c(=O)o2)c1 [Compound 4e, 4-(4-Bromophenyl)-2-(3-methylbenzoyl)isoxazol-5(2H)-one]"
17,22 ± 5,"Cc1cccc(-c2cn(C(=O)C3CC3)oc2=O)c1 [Compound 3c, 2-(Cyclopropanecarbonyl)-4-(m-tolyl)isoxazol-5(2H)-one]"
18,18 ± 5,"N#Cc1ccc(-c2cn(C(=O)C3CC3)oc2=O)cc1 [Compound 3h, 4-(2-(Cyclopropanecarbonyl)-5-oxo-2,5-dihydroisoxazol-4-yl)benzonitrile]"
